Columns and labels:
Format in all cases: in vivo
Chilo suppressalis = assay: Activity against Chilo suppressalis (striped rice stemborer), artificial diet, L2 larvae; conditions: 144 h, application rate 200 ppm, 6 days after infestation, read-out: control in at least one of the three categories (mortality, anti-feedant effect, or growth inhibition)
Procedure, shortened: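 Artificial diet was treated with aqueous test solutions made from 10′000 ppm DMSO stocks, dried, then infested with 6-8 L2 larvae per well. Mortality, anti-feeding effect and growth inhibition were scored versus untreated samples 6 days after infestation; control means any category exceeds untreated.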

Diabrotica balteata = assay: Activity against Diabrotica balteata (corn root worm), maize sprouts, L2 larvae; conditions: 96 h, application rate 200 ppm, 4 days after infestation, read-out: control in at least one of the two categories (mortality or growth inhibition)
Method: Example B2: Activity Against Diabrotica Balteata (Corn Root Worm)
Maize sprouts placed onto an agar layer in 24-well microtiter plates were treated with aqueous test solutions prepared from 10′000 ppm DMSO stock solutions by spraying. After drying, the plates were infested with L2 larvae (6 to 10 per well). The samples were assessed for mortality and growth inhibition in comparison to untreated samples 4 days after infestation.

Euschistus heros = assay: Activity against Euschistus heros (neotropical brown stink bug), soybean leaves, N2 nymphs; conditions: 120 h, application rate 200 ppm, 5 days after infestation, read-out: effect in at least one of the two categories (mortality or growth inhibition)
Method: Example B3: Activity Against Euschistus heros (Neotropical Brown Stink Bug)
Soybean leaves on agar in 24-well microtiter plates were sprayed with aqueous test solutions prepared from 10′000 ppm DMSO stock solutions. After drying the leaves were infested with N2 nymphs. The samples were assessed for mortality and growth inhibition in comparison to untreated samples 5 days after infestation.

[1] = tested on: Frankliniella occidentalis; assay: Activity against Frankliniella occidentalis (western flower thrips), feeding/contact activity; conditions: 168 h, application rate 200 ppm, 7 days after infestation
Method: Example B4: Activity Against Frankliniella occidentalis (Western Flower Thrips). Feeding/Contact Activity
Sunflower leaf discs were placed on agar in 24-well microtiter plates and sprayed with aqueous test solutions prepared from […] stock solutions. After drying the leaf discs were infested with a Frankliniella population of mixed ages. The samples were assessed for mortality 7 days after infestation.

Myzus persicae [2] = assay: Activity against Myzus persicae (green peach aphid), feeding/contact activity; conditions: 144 h, application rate 200 ppm, 6 days after infestation
Method: Example B5: Activity Against Myzus persicae (Green Peach Aphid). Feeding/Contact Activity
Sunflower leaf discs were placed onto agar in a 24-well microtiter plate and sprayed with aqueous test solutions prepared from 10′000 ppm DMSO stock solutions. After drying, the leaf discs were infested with an aphid population of mixed ages. The samples were assessed for mortality 6 days after infestation.

Plutella xylostella = assay: Activity against Plutella xylostella (diamond back moth), artificial diet, eggs; conditions: 192 h, application rate 200 ppm, 8 days after infestation, read-out: control in at least one of the two categories (mortality or growth inhibition)
Procedure, shortened: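 Artificial diet was treated with aqueous dilutions of 10′000 ppm DMSO stocks, dried, then infested with Plutella eggs. Mortality and growth inhibition versus untreated samples were scored 8 days after infestation.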

Spodoptera littoralis = assay: Activity against Spodoptera littoralis (Egyptian cotton leaf worm), cotton leaf discs, L1 larvae; conditions: foliar, 72 h, application rate 200 ppm, 3 days after infestation, read-out: control in at least one of the three categories (mortality, anti-feedant effect, or growth inhibition)
Procedure, shortened: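 Cotton leaf discs on agar sprayed with aqueous test solutions made from 10′000 ppm DMSO stocks, then infested with five L1 larvae once dry. Mortality, anti-feeding and growth inhibition scored versus untreated samples 3 days after infestation; control counted when any category exceeds untreated.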

Myzus persicae [3] = assay: Activity against Myzus persicae (green peach aphid), intrinsic activity; conditions: 120 h, test rate 12 ppm, 5 days after infestation
Procedure, shortened: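 Compounds diluted from 10′000 ppm DMSO stocks were mixed with sucrose solution under a stretched Parafilm membrane. Aphid-infested pea seedlings were set on the membrane and the plate was inverted so the aphids fed through it. Mortality was scored 5 days after infestation.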

C[C@H](NC(=O)c1cc(C(F)(F)F)cc(C(F)(F)F)c1)c1ncnn1C1=NN(C)C(=O)CC1 [P2, N-[(1S)-1-[2-(1-methyl-6-oxo-4,5-dihydropyridazin-3-yl)-1,2,4-triazol-3-yl]ethyl]-3,5-bis(trifluoromethyl)benzamide]
≥ 80%: percent control (mortality, anti-feedant effect or growth inhibition) at 200 ppm (Chilo suppressalis) | percent control (mortality or growth inhibition) at 200 ppm (Diabrotica balteata) | percent effect (mortality or growth inhibition) at 200 ppm (Euschistus heros) | mortality at 200 ppm [1] | mortality at 200 ppm (Myzus persicae [2]) | percent control (mortality or growth inhibition) at 200 ppm (Plutella xylostella) | percent control (mortality, anti-feedant effect or growth inhibition) at 200 ppm (Spodoptera littoralis)

C[C@H](NC(=O)c1cc(Cl)cc(S(C)(=O)=O)c1)c1ncnn1-c1ccc(=O)n(C)n1 [P9, 3-chloro-N-[(1S)-1-[2-(1-methyl-6-oxo-pyridazin-3-yl)-1,2,4-triazol-3-yl]ethyl]-5-methylsulfonyl-benzamide]
≥ 80%: percent effect (mortality or growth inhibition) at 200 ppm (Euschistus heros) | mortality at 200 ppm [1] | mortality at 200 ppm (Myzus persicae [2]) | mortality at 12 ppm (Myzus persicae [3])

CC(NC(=O)c1cc(C(F)(F)F)nc(C2(C#N)CC2)c1)c1nccnc1-c1ccc(=O)n(C)n1 (stereo not drawn) [P32, 2-(1-cyanocyclopropyl)-N-[1-[3-(1-methyl-6-oxo-pyridazin-3-yl)pyrazin-2-yl]ethyl]-6-(trifluoromethyl)pyridine-4-carboxamide]
≥ 80%: percent control (mortality, anti-feedant effect or growth inhibition) at 200 ppm (Chilo suppressalis) | percent control (mortality or growth inhibition) at 200 ppm (Diabrotica balteata) | percent effect (mortality or growth inhibition) at 200 ppm (Euschistus heros) | mortality at 200 ppm (Myzus persicae [2]) | mortality at 12 ppm (Myzus persicae [3]) | percent control (mortality or growth inhibition) at 200 ppm (Plutella xylostella) | percent control (mortality, anti-feedant effect or growth inhibition) at 200 ppm (Spodoptera littoralis)

C[C@H](NC(=O)c1cc(C(F)(F)F)nc(C2(C#N)CC2)c1)c1ncnn1-c1ccc(=O)n(C)n1 [P33, 2-(1-cyanocyclopropyl)-N-[(1S)-1-[2-(1-methyl-6-oxo-pyridazin-3-yl)-1,2,4-triazol-3-yl]ethyl]-6-(trifluoromethyl)pyridine-4-carboxamide]
≥ 80%: percent control (mortality, anti-feedant effect or growth inhibition) at 200 ppm (Chilo suppressalis) | percent control (mortality or growth inhibition) at 200 ppm (Diabrotica balteata) | percent effect (mortality or growth inhibition) at 200 ppm (Euschistus heros) | mortality at 200 ppm (Myzus persicae [2]) | mortality at 12 ppm (Myzus persicae [3]) | percent control (mortality or growth inhibition) at 200 ppm (Plutella xylostella) | percent control (mortality, anti-feedant effect or growth inhibition) at 200 ppm (Spodoptera littoralis)

C[C@H](NC(=O)c1cc(Br)cc(OC(F)(F)F)c1)c1ncnn1-c1ccc(=O)n(C)n1 [P40, 3-bromo-N-[(1S)-1-[2-(1-methyl-6-oxo-pyridazin-3-yl)-1,2,4-triazol-3-yl]ethyl]-5-(trifluoromethoxy)benzamide]
≥ 80%: percent control (mortality, anti-feedant effect or growth inhibition) at 200 ppm (Chilo suppressalis) | percent control (mortality or growth inhibition) at 200 ppm (Diabrotica balteata) | percent effect (mortality or growth inhibition) at 200 ppm (Euschistus heros) | mortality at 200 ppm (Myzus persicae [2]) | mortality at 12 ppm (Myzus persicae [3]) | percent control (mortality or growth inhibition) at 200 ppm (Plutella xylostella) | percent control (mortality, anti-feedant effect or growth inhibition) at 200 ppm (Spodoptera littoralis)

C[C@H](NC(=O)c1cc(C(F)(F)F)cc(C(C)(C)C#N)c1)c1ncnn1-c1ccc(=O)n(C)n1 [P43, 3-(1-cyano-1-methyl-ethyl)-N-[(1S)-1-[2-(1-methyl-6-oxo-pyridazin-3-yl)-1,2,4-triazol-3-yl]ethyl]-5-(trifluoromethyl)benzamide]
≥ 80%: percent control (mortality, anti-feedant effect or growth inhibition) at 200 ppm (Chilo suppressalis) | percent control (mortality or growth inhibition) at 200 ppm (Diabrotica balteata) | percent effect (mortality or growth inhibition) at 200 ppm (Euschistus heros) | mortality at 200 ppm (Myzus persicae [2]) | mortality at 12 ppm (Myzus persicae [3]) | percent control (mortality or growth inhibition) at 200 ppm (Plutella xylostella) | percent control (mortality, anti-feedant effect or growth inhibition) at 200 ppm (Spodoptera littoralis)
